pIC50: −log10 of the molar value.
Key:
COLO-678 = test: cells; type: functional, cell-based, Homo sapiens; settings: Homo sapiens, COLO-678
Description: SANGER: Inhibition of human COLO-678 cell growth in a cell viability assay.

U-251 = test: cells; type: functional, cell-based, Homo sapiens; settings: Homo sapiens, U-251;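 note: growth inhibition of human U-251 cells, read out through a cell viability assay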
Description: SANGER: Inhibition of human U251 cell growth in a cell viability assay.

HCC1395 = test: cells; type: functional, cell-based, Homo sapiens; settings: Homo sapiens, HCC1395;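 note: growth inhibition of HCC1395 cells, read out by a cell viability assay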
Description: SANGER: Inhibition of human HCC1395 cell growth in a cell viability assay.

SCC-25 = test: cells; type: functional, cell-based, Homo sapiens; settings: Homo sapiens, SCC-25;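 note: growth inhibition of SCC-25 cells, measured with a cell viability assay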
Description: SANGER: Inhibition of human SCC-25 cell growth in a cell viability assay.

NCCIT = test: SANGER: Inhibition of human NCCIT cell growth in a cell viability assay.; type: functional, cell-based; settings: Homo sapiens, NCCIT
MEL-JUSO = test: cells; type: functional, cell-based, Homo sapiens; settings: Homo sapiens, MEL-JUSO;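 note: growth inhibition of human MEL-JUSO cells, read out with a cell viability assay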
Description: SANGER: Inhibition of human MEL-JUSO cell growth in a cell viability assay.

HSC-4 = test: cells; type: functional, cell-based, Homo sapiens; settings: Homo sapiens, HSC-4;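 note: growth inhibition of human HSC-4 cells, read out with a cell viability assay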
Description: SANGER: Inhibition of human HSC-4 cell growth in a cell viability assay.

NY = test: cells; type: functional, cell-based, Homo sapiens; settings: Homo sapiens, NY
Description: SANGER: Inhibition of human NY cell growth in a cell viability assay.

HCC70 = test: cells; type: functional, cell-based, Homo sapiens; settings: Homo sapiens, HCC70;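 note: cell viability assay measuring how strongly the compound suppresses proliferation of HCC70 cells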
Description: SANGER: Inhibition of human HCC70 cell growth in a cell viability assay.

MDA-MB-361 = test: cells; type: functional, cell-based, Homo sapiens; settings: Homo sapiens, MDA-MB-361
CP50-MEL-B = test: cells; type: functional, cell-based, Homo sapiens; settings: Homo sapiens, CP50-MEL-B;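 note: growth inhibition of the human cell line, measured with a cell viability read-out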
Description: SANGER: Inhibition of human CP50-MEL-B cell growth in a cell viability assay.

EVSA-T = test: cells; type: functional, cell-based, Homo sapiens; settings: Homo sapiens, EVSA-T;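 note: growth inhibition of EVSA-T cells, read out with a cell viability assay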
Description: SANGER: Inhibition of human EVSA-T cell growth in a cell viability assay.

SKG-IIIa = test: cells; type: functional, cell-based, Homo sapiens; settings: Homo sapiens, SKG-IIIa;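 note: cell growth inhibition, read out with a cell viability assay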
Description: SANGER: Inhibition of human SKG-IIIa cell growth in a cell viability assay.

NCI-H1522 = test: cells; type: functional, cell-based, Homo sapiens; settings: Homo sapiens, NCI-H1522;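 note: growth inhibition of NCI-H1522 cells, read out with a cell viability assay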
Description: SANGER: Inhibition of human NCI-H1522 cell growth in a cell viability assay.

NCI-H2170 = test: cells; type: functional, cell-based, Homo sapiens; settings: Homo sapiens, NCI-H2170;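 note: cell viability assay measuring growth inhibition of human NCI-H2170 cancer cells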
Description: SANGER: Inhibition of human NCI-H2170 cell growth in a cell viability assay.

U2OS = test: cells; type: functional, cell-based, Homo sapiens, U-2-OS; settings: Homo sapiens, U2OS;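 note: growth inhibition of human U-2-OS cells, determined with a cell viability assay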
Description: SANGER: Inhibition of human U-2-OS cell growth in a cell viability assay.

MDA-MB-157 = test: cells; type: functional, cell-based, Homo sapiens; settings: Homo sapiens, MDA-MB-157
Description: SANGER: Inhibition of human MDA-MB-157 cell growth in a cell viability assay.

SIMA = test: cells; type: functional, cell-based, Homo sapiens; settings: Homo sapiens, SIMA;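 note: growth inhibition of SIMA cells, measured with a cell viability readout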
Description: SANGER: Inhibition of human SIMA cell growth in a cell viability assay.

MDA-MB-175-VII = test: cells; type: functional, cell-based, Homo sapiens; settings: Homo sapiens, MDA-MB-175-VII
PA-1 = test: cells; type: functional, cell-based, Homo sapiens; settings: Homo sapiens, PA-1;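 note: IC50 for suppression of PA-1 cell proliferation, determined with a cell viability read-out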
Description: SANGER: Inhibition of human PA-1 cell growth in a cell viability assay.

T98G = test: cells; type: functional, cell-based, Homo sapiens; settings: Homo sapiens, T98G;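 note: growth inhibition of T98G cells, read out by a cell viability assay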
Description: SANGER: Inhibition of human T98G cell growth in a cell viability assay.

TE-441-T = test: cells; type: functional, cell-based, Homo sapiens; settings: Homo sapiens, TE-441-T
Description: SANGER: Inhibition of human TE-441-T cell growth in a cell viability assay.

SW1990 = test: cells; type: functional, cell-based, Homo sapiens; settings: Homo sapiens, SW1990
Description: SANGER: Inhibition of human SW1990 cell growth in a cell viability assay.

CAL-120 = test: cells; type: functional, cell-based, Homo sapiens; settings: Homo sapiens, CAL-120;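 note: cell growth inhibition, read out as cell viability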
Description: SANGER: Inhibition of human CAL-120 cell growth in a cell viability assay.

KYSE-150 cell line = test: cells; type: functional, cell-based, Homo sapiens; settings: Homo sapiens, KYSE-150;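 note: growth inhibition of human KYSE-150 cells, read out with a cell viability assay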
Description: SANGER: Inhibition of human KYSE-150 cell growth in a cell viability assay.

NCI-H1437 = test: cells; type: functional, cell-based, Homo sapiens; settings: Homo sapiens, NCI-H1437;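 note: growth inhibition of human NCI-H1437 cells, read out by a cell viability assay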
Description: SANGER: Inhibition of human NCI-H1437 cell growth in a cell viability assay.

SU-DHL-1 = test: SANGER: Inhibition of human SU-DHL-1 cell growth in a cell viability assay.; type: functional, cell-based; settings: Homo sapiens, SU-DHL-1
NCI-H727 = test: cells; type: functional, cell-based, Homo sapiens; settings: Homo sapiens, NCI-H727;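 note: growth inhibition of human NCI-H727 cells, read out with a cell viability assay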
Description: SANGER: Inhibition of human NCI-H727 cell growth in a cell viability assay.

T-24 = test: cells; type: functional, cell-based, Homo sapiens; settings: Homo sapiens, T-24;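 note: growth inhibition of T-24 cells, read out with a cell viability assay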
Description: SANGER: Inhibition of human T-24 cell growth in a cell viability assay.

MDA-MB-453 = test: cells; type: functional, cell-based, Homo sapiens; settings: Homo sapiens, MDA-MB-453
Description: SANGER: Inhibition of human MDA-MB-453 cell growth in a cell viability assay.

CESS = test: SANGER: Inhibition of human CESS cell growth in a cell viability assay.; type: functional, cell-based; settings: Homo sapiens, CESS
UMC-11 = test: cells; type: functional, cell-based, Homo sapiens; settings: Homo sapiens, UMC-11;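 note: growth inhibition of UMC-11 cells, read out with a cell viability assay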
Description: SANGER: Inhibition of human UMC-11 cell growth in a cell viability assay.

NCI-H1703 = test: cells; type: functional, cell-based, Homo sapiens; settings: Homo sapiens, NCI-H1703;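 note: growth inhibition of NCI-H1703 cells, read out via a cell viability assay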
Description: SANGER: Inhibition of human NCI-H1703 cell growth in a cell viability assay.

5637 = test: cells; type: functional, cell-based, Homo sapiens; settings: Homo sapiens
Description: SANGER: Inhibition of human 5637 cell growth in a cell viability assay.

SR = test: cells; type: functional, cell-based, Homo sapiens; settings: Homo sapiens, SR
Description: SANGER: Inhibition of human SR cell growth in a cell viability assay.

AU565 = test: cells; type: functional, cell-based, Homo sapiens; settings: Homo sapiens, AU565;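 note: cell viability assay measuring growth inhibition of human AU565 cells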
Description: SANGER: Inhibition of human AU565 cell growth in a cell viability assay.

NCI-H64 = test: cells; type: functional, cell-based, Homo sapiens; settings: Homo sapiens, NCI-H64;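 note: growth inhibition of NCI-H64 cells, read out with a cell viability assay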
Description: SANGER: Inhibition of human NCI-H64 cell growth in a cell viability assay.

M14 = test: cells; type: functional, cell-based, Homo sapiens; settings: Homo sapiens, M14;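 note: growth inhibition of M14 cells, read out with a cell viability assay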
Description: SANGER: Inhibition of human M14 cell growth in a cell viability assay.

NCI-H322M = test: cells; type: functional, cell-based, Homo sapiens; settings: Homo sapiens, NCI-H322M;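 note: cell viability assay measuring inhibition of growth of human NCI-H322M cells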
Description: SANGER: Inhibition of human NCI-H322M cell growth in a cell viability assay.

KYSE-410 = test: cells; type: functional, cell-based, Homo sapiens; settings: Homo sapiens, KYSE-410;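 note: growth inhibition of KYSE-410 cells, measured through a cell viability readout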
Description: SANGER: Inhibition of human KYSE-410 cell growth in a cell viability assay.

HSC-3 = test: cells; type: functional, cell-based, Homo sapiens; settings: Homo sapiens, HSC-3
Description: SANGER: Inhibition of human HSC-3 cell growth in a cell viability assay.

In the case of `C=C(c1ccc(C(=O)O)cc1)c1cc2c(cc1C)C(C)(C)CCC2(C)C` [BEXAROTENE], the pIC50 (COLO-678) was < 5.10, the pIC50 (U-251) was < 5.10 and the pIC50 (HCC1395) was < 5.10. The pIC50 (SCC-25) was < 5.10, the pIC50 (NCCIT) was < 5.10 and the pIC50 (MEL-JUSO) was < 5.10. The pIC50 (HSC-4) was < 5.10, the pIC50 (NY) was < 5.10 and the pIC50 (HCC70) was < 5.10. For the same molecule, the pIC50 (MDA-MB-361) was < 5.10, the pIC50 (CP50-MEL-B) was < 5.10 and the pIC50 (EVSA-T) was < 5.10. The pIC50 (SKG-IIIa) was < 5.10, the pIC50 (NCI-H1522) was < 5.10 and the pIC50 (NCI-H2170) was < 5.10. For the same molecule, the pIC50 (U2OS) was < 5.10, the pIC50 (MDA-MB-157) was < 5.10 and the pIC50 (SIMA) was < 5.10. For the same molecule, the pIC50 (MDA-MB-175-VII) was < 5.10, the pIC50 (PA-1) was < 5.10 and the pIC50 (T98G) was < 5.10. For the same molecule, the pIC50 (TE-441-T) was < 5.10, the pIC50 (SW1990) was < 5.10 and the pIC50 (CAL-120) was < 5.10. The pIC50 (KYSE-150 cell line) was < 5.10, the pIC50 (NCI-H1437) was < 5.10 and the pIC50 (SU-DHL-1) was < 5.10. The pIC50 (NCI-H727) was < 5.10, the pIC50 (T-24) was < 5.10 and the pIC50 (MDA-MB-453) was < 5.10. The pIC50 (CESS) was < 5.10, the pIC50 (UMC-11) was < 5.10 and the pIC50 (NCI-H1703) was < 5.10. For the same molecule, the pIC50 5637 was < 5.10, the pIC50 (SR) was < 5.10 and the pIC50 (AU565) was < 5.10. For the same molecule, the pIC50 (NCI-H64) was < 5.10, the pIC50 (M14) was < 5.10 and the pIC50 (NCI-H322M) was < 5.10. For the same molecule, the pIC50 (KYSE-410) was < 5.10 and the pIC50 (HSC-3) was < 5.10.
`COc1cccc2c1C(=O)c1c(O)c3c(c(O)c1C2=O)C[C@@](O)(C(=O)CO)C[C@@H]3O[C@H]1C[C@H](N)[C@H](O)[C@H](C)O1` [DOXORUBICIN] was tested, and the pIC50 (COLO-678) was 6.37, the pIC50 (U-251) was 7.19 and the pIC50 (HCC1395) was < 5.99. It also gave a pIC50 (SCC-25) of 6.81, a pIC50 (NCCIT) of 7.70 and a pIC50 (MEL-JUSO) of 7.84. For the same molecule, the pIC50 (HSC-4) was 7.12, the pIC50 (NY) was 6.64 and the pIC50 (HCC70) was < 5.99. For the same molecule, the pIC50 (MDA-MB-361) was 6.53, the pIC50 (CP50-MEL-B) was < 5.99 and the pIC50 (EVSA-T) was < 5.99. The pIC50 (SKG-IIIa) was 6.51, the pIC50 (NCI-H1522) was < 5.99 and the pIC50 (NCI-H2170) was 6.96. For the same molecule, the pIC50 (U2OS) was < 5.99, the pIC50 (MDA-MB-157) was 6.30 and the pIC50 (SIMA) was 6.42. For the same molecule, the pIC50 (MDA-MB-175-VII) was 6.01, the pIC50 (PA-1) was 7.35 and the pIC50 (T98G) was < 5.99. The pIC50 (TE-441-T) was 7.05, the pIC50 (SW1990) was 6.69 and the pIC50 (CAL-120) was 6.11. The pIC50 (KYSE-150 cell line) was 7.56, the pIC50 (NCI-H1437) was 7.19 and the pIC50 (SU-DHL-1) was 6.99. For the same molecule, the pIC50 (NCI-H727) was 7.64, the pIC50 (T-24) was 6.61 and the pIC50 (MDA-MB-453) was < 5.99. For the same molecule, the pIC50 (CESS) was 7.40, the pIC50 (UMC-11) was 6.48 and the pIC50 (NCI-H1703) was 6.90. The pIC50 5637 was 7.50, the pIC50 (SR) was 7.61 and the pIC50 (AU565) was 6.98. The pIC50 (NCI-H64) was 6.88, the pIC50 (M14) was 6.04 and the pIC50 (NCI-H322M) was < 5.99. The pIC50 (KYSE-410) was 6.99 and the pIC50 (HSC-3) was 7.13.

Reference: ChEMBL document CHEMBL1201861, “Genomics of Drug Sensitity in Cancer screening data, Wellcome Trust Sanger Institute”
